Experimental findings from PMC4537067 (ACS infectious diseases, 2015) are described below.

Each structure is given as a SMILES string. Structures can show the parent of a compound that is named as a salt. Where two headings read alike, the source gives them in different places.

Series [1] has as its system EBOV minigenome activity. In words: microbe, parasite or virus in culture. Format: cell-based, Ebola virus.
In series [2] the test system is EBOV minigenome activity.
Another series is described as follows: in vitro. The note with it: human.
Series [3] has as its system EBOV minigenome activity. In words: cells. The note with it: Zaire ebolavirus, HEK-293T, 24 h.
In another series the test system is EBOV-GFP. Format: cell-based, Ebola virus.
Series [4] deals with EBOV minigenome activity. Format: cell-based, Ebola virus.

As a reminder, the inhibition is the drop in the measured response relative to a control, in per cent. For the compound `O=c1cnn([C@@H]2O[C@H](CO)[C@@H](O)[C@H]2O)c(=O)[nH]1` [6-Azauridine], in the series on EBOV minigenome activity [1] (Zaire ebolavirus, 24 h, read-out: inhibition of minigenome activity (positive control)), the inhibition at 7 µM is roughly 70%.

As a reminder, the IC50 is the concentration that inhibits the measured activity by half. A high value points to a need for much substance. With `CC(=O)Oc1c2c(c(CC=C(C)C)c3c1C(=O)C1=C[C@@H]4CC5C(C)(C)OC(C/C=C(\C)C(=O)O)(C4=O)[C@@]15O3)OC(C)(CCC=C(C)C)C=C2` (stereo partly drawn) [acetyl isogambogic acid], in the series on EBOV minigenome activity [2], the “SI (CC50/IC50)” value is reported as 0.983. Moreover, the “% inhibition in screen” value with EBOV minigenome activity [1] came to 99.0%. The same compound came in with a CC50 in “in vitro” of 2880 nM. In the series with EBOV minigenome activity [3], this compound had an IC50 of 2940 nM.

`Nc1ncn([C@@H]2O[C@H](CO)[C@@H](O)[C@H]2O)c(=O)n1` [azacitidine]: the “SI (CC50/IC50)” value in the series on EBOV minigenome activity [2] is recorded as greater than 12.466. The “% inhibition in screen” value with EBOV minigenome activity [1] was 76.9%. Also, the CC50 in the series “in vitro” is greater than 50000 nM. In addition, in the series on EBOV minigenome activity [3], the IC50 is 4010 nM.

Take `C[C@@]12C(=O)OC(=O)[C@]1(C)[C@H]1CC[C@@H]2O1` [cantharidin]: the IC50 in the series on EBOV minigenome activity [2] and in the series on EBOV minigenome activity [3] was 11300 nM throughout. The “SI (CC50/IC50)” value in the series on EBOV minigenome activity [2] was greater than 4.415. Besides, the “% inhibition in screen” value in the series on EBOV minigenome activity [1] is reported as 87.3%. Besides, the CC50 in “in vitro” was greater than 50000 nM.

As for `CO[C@H]1C=C[C@@]23c4cc5c(cc4CN(C[C@@H]2O)[C@H]3C1)OCO5` [crinamine], the CC50 in the series on HEK293T cells is greater than 50000 nM. For the same compound, in the series on EBOV minigenome activity [2], half-maximal inhibition (IC50) required 3790 nM and the “SI (CC50/IC50)” value is reported as greater than 13.196. The “% inhibition in screen” value in the series with EBOV minigenome activity [1] is 91.5%.

For the compound `C[C@@H]1C[C@@H]([C@H](O)CC2CC(=O)NC(=O)C2)C(=O)[C@@H](C)C1` [cycloheximide], in the series on Vero E6 cells, the cytotoxicity result is “cytotoxic at higher concentrations”. Besides, in the series with EBOV minigenome activity [1], the “% inhibition in screen” value came to 97.9%. Further, the “reduction of EBOV replication (EBOV-GFP)” value in the series with EBOV-GFP stood at 96%. In “in vitro”, this compound had a CC50 greater than 50000 nM. The compound also yielded an IC50 with EBOV minigenome activity [3] of 608 nM.

For `C[C@H]1O[C@@H](O[C@H]2[C@@H](O)C[C@H](O[C@H]3[C@@H](O)C[C@H](O[C@H]4CC[C@@]5(C)[C@H](CC[C@@H]6[C@@H]5CC[C@]5(C)[C@@H](C7=CC(=O)OC7)CC[C@]65O)C4)O[C@@H]3C)O[C@@H]2C)C[C@H](O)[C@@H]1O` [digitoxin], the “SI (CC50/IC50)” value in the series on EBOV minigenome activity [2] is 0.62. Further, in the series on EBOV minigenome activity [1], the “% inhibition in screen” value was 92.5%. This compound yielded a CC50 in “in vitro” of 31 nM. Besides, in the series on EBOV minigenome activity [3], the midpoint of inhibition, the IC50, lay at 50 nM.

The compound `CN(C)CCOC(c1ccccc1)c1ccccc1.Cn1c(=O)c2[nH]c(Cl)nc2n(C)c1=O` [dramamine] showed a CC50 in the series on HEK293T cells greater than 50000 nM. Further, the IC50 with EBOV minigenome activity [2] is greater than 50000 nM. The “% inhibition in screen” value in the series with EBOV minigenome activity [1] was determined as 57.8%.

Consider `CC[C@H]1CN2CCc3cc(OC)c(OC)cc3[C@@H]2C[C@@H]1C[C@H]1NCCc2cc(OC)c(OC)cc21` [emetine], for which the cytotoxicity result in the series on Vero E6 cells is “cytotoxic at higher concentrations”. For the same compound, the “% inhibition in screen” value with EBOV minigenome activity [1] was determined as 98.3%. The “reduction of EBOV replication (EBOV-GFP)” value in the series with EBOV-GFP worked out at 99%. Also, in the series “in vitro”, the CC50 was greater than 50000 nM. This compound also showed an IC50 in the series on EBOV minigenome activity [3] of 1470 nM.

Consider `O=c1[nH]cc(F)c(=O)[nH]1` [fluorouracil], for which the CC50 in the series “in vitro” was greater than 50000 nM. This compound also registered a 50% inhibitory concentration (IC50) with EBOV minigenome activity [3] greater than 50000 nM.

For `CC(C)=CCC[C@]1(C)C=Cc2c(O)c3c(c(CC=C(C)C)c2O1)O[C@]12C(=C[C@@H]4CC1C(C)(C)O[C@@]2(C/C=C(/C)C(N)=O)C4=O)C3=O` [gambogic amide], in the series on EBOV minigenome activity [2], the “SI (CC50/IC50)” value came to 0.45. In the series with EBOV minigenome activity [1], the “% inhibition in screen” value is on record as 100.0%. In “in vitro”, this compound displayed a CC50 of 454 nM. For the same compound, in the series on EBOV minigenome activity [3], 1010 nM corresponded to half-maximal inhibition (IC50).

For `CC(=O)O[C@@H]1C[C@H]2C(C)(C)C(=O)C=C[C@]2(C)[C@H]2CC[C@@]3(C)[C@H](c4ccoc4)OC(=O)[C@H]4O[C@]43[C@@]21C` [gedunin], the “cell death (cytotoxicity)” value in the series with Vero E6 cells was “little cell death”. For the same compound, in the series with EBOV minigenome activity [2], the “SI (CC50/IC50)” value is given as 6.829. Further, the “% inhibition in screen” value with EBOV minigenome activity [1] was 72.9%. Further, the “reduction of virus replication (EBOV-GFP)” value in the series on EBOV-GFP is 98%. Further, in “in vitro”, the CC50 is 5480 nM. Also, the IC50 in the series on EBOV minigenome activity [3] was determined as 803 nM.

The compound `Cc1ccc(C)c(OCCCC(C)(C)C(=O)O)c1` [gemfobrozil] registered a CC50 in the series on HEK293T cells greater than 50000 nM. This compound had an IC50 in the series with EBOV minigenome activity [2] greater than 50000 nM. Also, in the series on EBOV minigenome activity [1], the “% inhibition in screen” value turned out to be 62.1%.

Turning to `CC(=O)O[C@H]1C[C@H](O[C@H]2[C@@H](O)C[C@H](O[C@H]3[C@@H](O)C[C@H](O[C@H]4CC[C@@]5(C)[C@H](CC[C@@H]6[C@@H]5C[C@@H](O)[C@]5(C)[C@@H](C7=CC(=O)OC7)CC[C@]65O)C4)O[C@@H]3C)O[C@@H]2C)O[C@H](C)[C@H]1O[C@@H]1O[C@H](CO)[C@@H](O)[C@H](O)[C@H]1O` [lanatoside C], the “SI (CC50/IC50)” value with EBOV minigenome activity [2] is given as 0.694. Also, the “% inhibition in screen” value in the series on EBOV minigenome activity [1] came out at 100.0%. Also, the CC50 in “in vitro” was determined as 177 nM. In the series with EBOV minigenome activity [3], this compound showed an IC50 of 255 nM.

With `CN(Cc1cnc2nc(N)nc(N)c2n1)c1ccc(C(=O)N[C@@H](CCC(=O)O)C(=O)O)cc1` [methotrexate], the “% inhibition in screen” value in the series on EBOV minigenome activity [1] worked out at 67.1%. In “in vitro”, this compound yielded a CC50 greater than 50000 nM. This compound also returned an IC50 with EBOV minigenome activity [3] greater than 50000 nM.

In the case of `COc1c(C)c2c(c(O)c1C/C=C(\C)CCC(=O)O)C(=O)OC2` [mycophenolic acid], in the series with Vero E6 cells, the “cell death (cytotoxicity)” value was “little cell death”. The “% inhibition in screen” value with EBOV minigenome activity [1] was determined as 90.5%. Moreover, the “effect of guanosine addition on inhibition of minigenome activity” value with EBOV minigenome activity [4] was “rescued minigenome activity at all concentrations”. The “reduction of virus replication (EBOV-GFP)” value with EBOV-GFP turned out to be 96%. The compound also came in with a CC50 in the series “in vitro” greater than 50000 nM. In addition, in the series on EBOV minigenome activity [3], the IC50 was 316 nM.

On to `CC1=CC(=O)c2c(O)cccc2C1=O` [plumbagin], for which the “SI (CC50/IC50)” value in the series with EBOV minigenome activity [2] is 0.823. The “% inhibition in screen” value with EBOV minigenome activity [1] worked out at 98.3%. In the series “in vitro”, this compound gave a CC50 of 756 nM. In the series on EBOV minigenome activity [3], this compound yielded an IC50 of 919 nM.

In the case of `COc1ccc(C[C@H](N)C(=O)N[C@H]2[C@@H](O)[C@H](n3cnc4c(N(C)C)ncnc43)O[C@@H]2CO)cc1` [puromycin hydrochloride], the “SI (CC50/IC50)” value with EBOV minigenome activity [2] turned out to be 4.043. Also, the “% inhibition in screen” value in the series with EBOV minigenome activity [1] is listed as 99.7%. Also, in the series “in vitro”, the CC50 was 3590 nM. The IC50 in the series on EBOV minigenome activity [3] was 889 nM.

With `C[C@]12CC[C@H]3[C@@H](CC[C@]4(O)C[C@@H](O)CC[C@]34C=O)[C@@]1(O)CC[C@@H]2C1=CC(=O)OC1` [strophanthidin], in the series on EBOV minigenome activity [2], the “SI (CC50/IC50)” value turned out to be 0.423. The “% inhibition in screen” value with EBOV minigenome activity [1] was found to be 100.0%. The compound further yielded a CC50 in the series “in vitro” of 491 nM. This compound also showed an IC50 in the series with EBOV minigenome activity [3] of 1160 nM.

Turning to `Nc1ncnc2c1ncn2[C@@H]1O[C@H](CO)[C@@H](O)[C@@H]1O` [vidarabine], the “% inhibition in screen” value in the series on EBOV minigenome activity [1] amounted to 56.1%. In “in vitro”, the CC50 is greater than 50000 nM. This compound also had an IC50 in the series with EBOV minigenome activity [3] greater than 50000 nM.
